One assay addresses Butyrylcholinesterase (Equus caballus, UniProt Q9N1N9). Briefly: Inhibition of horse serum BChE.
The nature of assay [1]: Selectivity for horse serum BChE over electric eel AChE.
In another assay the target is Acetylcholinesterase (Electrophorus electricus, UniProt O42275). Briefly: Inhibition of electric eel AChE.
The mark [2] stands for this setting: read-out: -Log IC50 (converted).

Sequence of Acetylcholinesterase (O42275 whole entry): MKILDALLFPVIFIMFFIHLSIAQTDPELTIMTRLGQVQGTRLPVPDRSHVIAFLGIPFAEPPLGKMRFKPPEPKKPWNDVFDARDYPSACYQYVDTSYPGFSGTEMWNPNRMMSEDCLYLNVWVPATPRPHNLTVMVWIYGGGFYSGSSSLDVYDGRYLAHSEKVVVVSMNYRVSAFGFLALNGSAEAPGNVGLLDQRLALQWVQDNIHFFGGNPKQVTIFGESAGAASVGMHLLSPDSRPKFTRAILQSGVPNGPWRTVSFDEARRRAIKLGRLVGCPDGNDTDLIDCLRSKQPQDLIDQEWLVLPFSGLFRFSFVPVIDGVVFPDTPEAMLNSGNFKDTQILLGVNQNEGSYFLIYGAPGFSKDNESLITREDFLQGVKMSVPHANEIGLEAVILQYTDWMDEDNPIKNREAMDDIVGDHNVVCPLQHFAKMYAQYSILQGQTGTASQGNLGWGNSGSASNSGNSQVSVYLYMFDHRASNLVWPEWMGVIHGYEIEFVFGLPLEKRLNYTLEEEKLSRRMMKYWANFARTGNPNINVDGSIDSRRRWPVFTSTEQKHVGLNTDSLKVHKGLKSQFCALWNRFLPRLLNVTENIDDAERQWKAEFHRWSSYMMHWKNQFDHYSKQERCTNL
Sequence of Butyrylcholinesterase (Q9N1N9 whole entry): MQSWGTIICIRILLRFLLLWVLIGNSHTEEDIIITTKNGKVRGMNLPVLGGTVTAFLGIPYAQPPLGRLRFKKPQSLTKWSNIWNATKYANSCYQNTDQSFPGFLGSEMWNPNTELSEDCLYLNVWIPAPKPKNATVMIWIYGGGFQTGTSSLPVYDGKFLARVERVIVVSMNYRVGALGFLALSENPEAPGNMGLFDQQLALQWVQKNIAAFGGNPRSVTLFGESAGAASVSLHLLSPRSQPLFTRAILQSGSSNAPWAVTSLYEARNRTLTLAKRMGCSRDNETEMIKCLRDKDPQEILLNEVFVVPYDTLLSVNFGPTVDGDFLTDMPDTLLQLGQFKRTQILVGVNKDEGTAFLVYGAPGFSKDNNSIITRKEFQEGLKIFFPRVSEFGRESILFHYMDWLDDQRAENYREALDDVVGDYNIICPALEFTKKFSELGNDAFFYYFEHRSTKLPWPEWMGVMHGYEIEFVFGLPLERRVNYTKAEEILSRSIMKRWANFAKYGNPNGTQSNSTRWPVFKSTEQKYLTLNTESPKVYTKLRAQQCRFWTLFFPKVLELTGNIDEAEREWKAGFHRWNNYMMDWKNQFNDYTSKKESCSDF

On to `c1ccc2/c(=N/CCCCCCC/N=c3\c4ccccc4nc4n3CCCCCC4)n3c(nc2c1)CCCCCC3`, for which the IC50 on Butyrylcholinesterase (read-out: IC50) was 27 nM; against Acetylcholinesterase it was 65 nM. For the same compound, in assay [1], the Ratio IC50 was found to be 2.4.
`CCCC/N=c1/c2ccccc2nc2n1CCC2`: the results for the IC50 on Butyrylcholinesterase (read-out: IC50) and at Acetylcholinesterase were 5500 nM and 9500 nM, respectively. Also, in assay [1], the Ratio IC50 was determined as 1.7.
Turning to `c1ccc2/c(=N/CCCCCCCC/N=c3/c4ccccc4nc4n3CCC4)n3c(nc2c1)CCC3`, the IC50 at Butyrylcholinesterase (read-out: IC50) worked out at 4.8 nM; against Acetylcholinesterase, 58 nM. Moreover, in assay [1], the Ratio IC50 is 12.
As for `c1ccc2/c(=N/CCCCCCC/N=c3\c4ccccc4nc4n3CCC4)n3c(nc2c1)CCC3`, the IC50 was 88 nM at Butyrylcholinesterase (read-out: IC50) and 79 nM on Acetylcholinesterase. The Ratio IC50 in assay [1] came out at 0.9.
With `Clc1ccc2/c(=N/CCCCCCC/N=c3\c4ccc(Cl)cc4nc4n3CCC4)n3c(nc2c1)CCC3`, the IC50 on Butyrylcholinesterase (read-out: IC50) was 61 nM; on Acetylcholinesterase, 59 nM. Also, the Ratio IC50 in assay [1] is 1.
Regarding `c1ccc2/c(=N/CCCCCCC/N=c3\c4ccccc4nc4n3CCCCC4)n3c(nc2c1)CCCCC3`, the IC50 on Butyrylcholinesterase (read-out: IC50) was 24 nM; on Acetylcholinesterase, 40 nM. The Ratio IC50 in assay [1] came to 1.6.
In the case of `Clc1ccc2c(c1)N=C1CCCN1C2NCCCCCCCC/N=c1/c2ccc(Cl)cc2nc2n1CCC2` (stereo unspecified), the IC50 came to 45.4 nM on Butyrylcholinesterase (read-out: IC50) and 50.2 nM at Acetylcholinesterase. In addition, in assay [1], the Ratio IC50 was found to be 1.1.
As for `CC(=O)/N=c1/c2ccccc2nc2n1CCC2`, the 50% inhibitory concentration (IC50) on Butyrylcholinesterase (setting [2]) is 428000 nM; on Butyrylcholinesterase (read-out: IC50), 204000 nM; at Acetylcholinesterase it was 115000 nM. For the same compound, the Ratio IC50 in assay [1] was determined as 0.6.
Take `c1ccc2/c(=N/CCCCCCCC/N=c3/c4ccccc4nc4n3CCCCCC4)n3c(nc2c1)CCCCCC3`: the IC50 at Butyrylcholinesterase (read-out: IC50) amounted to 76 nM; on Acetylcholinesterase, 14400 nM. Further, the Ratio IC50 in assay [1] was 189.
Consider `c1ccc2/c(=N/CCCCCCCC/N=c3/c4ccccc4nc4n3CCCCC4)n3c(nc2c1)CCCCC3`, for which the values for the IC50 at Butyrylcholinesterase (read-out: IC50) and on Acetylcholinesterase were 13 nM and 1280 nM, respectively. Also, the Ratio IC50 in assay [1] is 98.
Regarding `N=c1c2ccccc2nc2n1CCC2`, the results for the IC50 at Butyrylcholinesterase (setting [2]), at Butyrylcholinesterase (read-out: IC50) and on Acetylcholinesterase were 716 nM, 7200 nM and 13200 nM, respectively. In assay [1], the Ratio IC50 amounted to 1.8.
For `c1ccc2/c(=N/CCCCCCCC/N=c3/c4ccccc4nc4n3CCCC4)n3c(nc2c1)CCCC3`, the IC50 was determined as 7.6 nM on Butyrylcholinesterase (read-out: IC50) and 37 nM on Acetylcholinesterase. In addition, the Ratio IC50 in assay [1] was found to be 4.9.
In the case of `CCCC/N=c1/c2ccc(Cl)cc2nc2n1CCC2`, the IC50 on Butyrylcholinesterase (read-out: IC50) is 2300 nM. In addition, the Ratio IC50 in assay [1] was 1.7.
Regarding `c1ccc2/c(=N/CCCCCCC/N=c3\c4ccccc4nc4n3CCCC4)n3c(nc2c1)CCCC3`, the IC50 is 8.5 nM on Butyrylcholinesterase (read-out: IC50) and 77 nM against Acetylcholinesterase. The Ratio IC50 in assay [1] was 9.
For `N=c1c2ccccc2nc2n1CCCCCC2` the same measures were 3000 nM, 14600 nM and 4.9.

Usually IC50 stands for the midpoint of a concentration-inhibition curve.

Source of the values: ChEMBL document CHEMBL1149472, “Homobivalent quinazolinimines as novel nanomolar inhibitors of cholinesterases with dirigible selectivity toward butyrylcholinesterase” (J Med Chem, 2006).
